Assay results reported in patent US20110293524A1, “METHODS AND COMPOSITIONS FOR THE REGULATION OF LECTIN COMPLEMENT PATHWAY (LCP)-ASSOCIATED COMPLEMENT ACTIVATION IN HYPERGLYCEMIC MYOCARDIAL DAMAGE” (The Brigham and Women"s Hosptial Inc., priority 2008, published 2011).

Key:
Assay type in all cases: in vivo
[1] = test system: diabetic WT mice; experiment: Neutrophil infiltration into the myocardium following MI/R (Ly-6G staining, infrared imaging); details: diabetic WT mice treated with insulin; 15 min ischemia, 4 h reperfusion
Protocol: (§1) All animals used in MI/R experiments were male mice aged 8-12 wk old. C57BL/6 [wildtype (WT)] mice were obtained from Charles River Laboratories (Wilmington, Mass.). MBL null animals 21, back-crossed 8-10 generations onto the C57BL/6 background, were used as previously described^2,22. All procedures were reviewed and conducted in accordance with the Institute's Animal Care and Use Committee (IACUC). Experiments were performed according to the standards and principles set forth in the National Institutes of Health (Guide for the Care and Use of Laboratory Animals-DHHS publication no. (NIH) 85-23, revised 1985). Mice were made diabetic by a single injection of freshly prepared streptozotocin (STZ) solution (200 mg/kg body weight in citrate saline, pH 4.2, i.p., ALEXIS, Lausen, Switzerland)^23. The mice were housed in cages of four mice each and had unlimited access to water and standard mouse chow. Three days after STZ injection and immediately before MI/R studies, the urine glucose was assessed with Glucostix (Diastix, Bayer, Elkhart, Ind.). Mice with urine glucose>500 mg/dl in both tests were presumed to be diabetic. A group of STZ-injected mice was intensively treated with Lantus insulin (Sanofi-Aventis, Bridgewater, N.J.) to rule out any potentially cardiotoxic effects of STZ. Dependent on the individual daily urine glucose, 2-6 IU of insulin was injected (i.p.) daily. […]

[2] = test system: diabetic WT mice; experiment: Cardiac progenitor cell (CPC) numbers in heart sections (SCF R/c-kit staining); details: diabetic WT mice treated with insulin, two weeks of diabetes
Protocol: as §1

[3] = test system: diabetic WT mice; experiment: Left ventricular ejection fraction by echocardiography after MI/R (15 min ischemia, 4 h reperfusion); details: STZ-diabetic WT mice, insulin 2-6 IU i.p. daily for 2 weeks, vs non-treated diabetic WT mice
Protocol: (§2) All animals used in MI/R experiments were male mice aged 8-12 wk old. C57BL/6 [wildtype (WT)] mice were obtained from Charles River Laboratories (Wilmington, Mass.). MBL null animals 21, back-crossed 8-10 generations onto the C57BL/6 background, were used as previously described^2,22. All procedures were reviewed and conducted in accordance with the Institute's Animal Care and Use Committee (IACUC). Experiments were performed according to the standards and principles set forth in the National Institutes of Health (Guide for the Care and Use of Laboratory Animals-DHHS publication no. (NIH) 85-23, revised 1985). […] Three days after STZ injection and immediately before MI/R studies, the urine glucose was assessed with Glucostix (Diastix, Bayer, Elkhart, Ind.). […]
(§3) Echocardiography was performed after mice had underwent experimental MI/R as described above. It has been shown that in the mouse model of MI/R, myocardial damage via infarct analysis is directly correlated with loss of function as measured by echocardiography^2. […] Ejection fraction (EF) was calculated both via left ventricular M-mode measurements and via long axis length and short axis area measurements of the left ventricle (LV)^24,25. […] In some animals, long axis and short axis area measurements of the LV were assessed prior to MI/R to assess myocardial dimensions under nonischemic conditions.

[4] = test system: diabetic WT mice; experiment: Serum troponin I concentration after MI/R (ELISA); details: insulin-treated diabetic animals vs non-treated diabetic WT mice; 15 min ischemia, 4 h reperfusion
Protocol: as §1, with “diabetic.” for “diabetic. A group of STZ-injected mice was intensively treated with Lantus insulin (Sanofi-Aventis, Bridgewater, N.J.) to rule out any potentially cardiotoxic effects of STZ. Dependent on the individual daily urine glucose, 2-6 IU of insulin was injected (i.p.) daily.”
(§4) Hearts were excised and fixed in 10% formalin PBS at 4° C. overnight. […] Serum troponin I concentrations were measured as an index of myocardial cell death using a commercially available ELISA kit (Life Diagnostics, West Chester, Pa.)^26.

[5] = test system: diabetic WT mice; experiment: Heart/body weight ratio after 2 weeks of diabetes; details: STZ-diabetic WT mice, insulin-treated, no MI/R
Protocol: as §1, with “diabetic.” for “diabetic. A group of STZ-injected mice was intensively treated with Lantus insulin (Sanofi-Aventis, Bridgewater, N.J.) to rule out any potentially cardiotoxic effects of STZ. Dependent on the individual daily urine glucose, 2-6 IU of insulin was injected (i.p.) daily.”
as §4

[6] = test system: diabetic WT mice; experiment: Left ventricular long and short axis area measurements by echocardiography before MI/R; details: STZ-diabetic WT mice, insulin 2-6 IU i.p. daily for 2 weeks
Protocol: as §2, §3

Substance: insulin
- inflammatory response (neutrophil infiltration into cardiac tissue) after MI/R [1]: attenuated the inflammatory response
- loss of cardiac progenitor cells (CPC) in diabetes [2]: reversed this effect
- cardiac function (ejection fraction) following MI/R [3]: prevented loss of cardiac function following MI/R
- serum troponin I concentrations after MI/R [4]: significantly reduced
- diabetic cardiomyopathy / hypertrophic remodeling by heart/body weight ratios [5]: protected diabetic WT mice from diabetic cardiomyopathy
- diabetic cardiomyopathy as measured by long and short axis measurements via echocardiography [6]: protected diabetic WT mice from diabetic cardiomyopathy
